Earlier results in US20070003628A1, “Nanoparticulate clopidogrel formulations” (Elan Pharma International Limited, priority 2005, published 2007).
Where a name gives a salt, the structure may show the parent alone. Read-outs that look alike come from different tables or passages of the source.

Legend:
[1] = not given; remark: listed apart in the source

Row | SMILES | solubility in ethyl ether (ethyl ether) | solubility in methanol (methanol) | solubility in methylene chloride (methylene chloride) | solubility in water (pH 1.0) | solubility in water (water at neutral pH) | rate of a combined end point of cardiovascular death, MI, or stroke, and of cardiovascular death, MI, stroke, or refractory ischemia ([1]; patients with acute coronary syndrome) | rate of a combined end point of new ischemic stroke, new MI, and other vascular death ([1]; recent myocardial infarction, recent stroke or established arterial disease) | solubility in water (water, pH not stated)
1 | COC(=O)[C@H](c1ccccc1Cl)N1CCc2sccc2C1 [Clopidogrel bisulfate, methyl (+)-(S)-α-(2-chorophenyl)-6,7-dihydrothieno[3,2-c]pyridine-5(4H)-acetate sulfate (1:1)] | practically insoluble | dissolves freely | dissolves sparingly | freely soluble | practically insoluble | decrease the rate | reduce the rate | –
2 | COC(=O)[C@H](c1ccccc1Cl)N1CCc2sccc2C1 [clopidogrel] | – | – | – | – | – | – | – | practically insoluble
